Experimental data from US10955415B2, “CD247 as a biomarker for assessing the effect of chemotherapeutic and biological drugs” (YISSUM RESEARCH DEVELOPMENT COMPANY OF THE HEBREW …, priority 2011, dated 2021).
“Also recorded” adds a separate entry of the source.

Columns and labels:
MDSCs (Gr1+CD11b+) = test system: MDSCs (Gr1+CD11b+); design: species or system mice; conditions: mouse, in vivo
CD247 (ζ chain) = test system: CD247 (ζ chain); design: species or system mice; conditions: mouse, in vivo; for increase in the expression value of CD247 upon treatment: ip
CD4+Foxp3+ Treg cells = test system: CD4+Foxp3+ Treg cells; design: species or system mice; conditions: mouse, in vivo
CD3ε chain = test system: CD3ε chain; design: species or system mice; conditions: mouse, in vivo
MDSCs = type: in vivo, mice; conditions: spleen of BCG-inflamed mice, monotherapy, MFI
CD247 = assay: Adoptive transfer of CFSE-labeled normal splenocytes, CD247 in host and donor cells; type: in vivo, mice; conditions: BCG-inflamed hosts, 24 h after transfer, spleen
Experimental: CFSE-labeled splenocytes from normal mice (donor cells) were adoptively transferred into mice untreated, inflamed, and inflamed treated i.p. with irinotecan (hosts). After 24 h, splenocytes from each group were harvested and stained for CD247 expression (MFI) in CD3+ T cells within the CFSE+ (donor-cell) or CFSE− (host-cell) population. Data from three independent experiments (n=4) is presented. Statistical analyses using t test indicated significant differences at 95% Cl. Means and SEM are shown. * P<0.05. Abbreviations: Ho. (host), Do. (donor), cont. (control).
CFSE-labeled splenocytes from normal mice (donor cells) were adoptively transferred into non-inflamed, inflamed, and inflamed mice treated i.p. with 5-FU (hosts). After 24 h, splenocytes from each group were harvested and stained for CD247 expression (MFI) in CD3+ T cells within the CFSE+ (donor-cell) or CFSE− (host-cell) population. Data from three independent experiments (n=4) is presented. Statistical analyses using t test indicated significant differences at 95% Cl. Means and SEM are shown. *, P<0.05. Abbreviations: Ho. (host), Do. (donor), cont. (control).
Next, the effect of etanercept treatment on the host's immune status as well as on adoptively transferred T- and NK-cells was examined. It should be noted that adoptively transferred T- and NK-cells being a treatment that is frequently used today in different immunotherapeutic regiments for various pathologies. To this end, CFSE-labeled normal splenocytes were administered, i.v., 1 day before cell harvest, at the peak of the inflammatory response (mimicking cell mediated therapies).

[1] = test system: CD11b+CD11c+ and CD11b+F4/80+ cells; assay: Myeloid differentiation state in spleen (DCs, macrophages, APC maturation); type: in vivo; conditions: BCG-inflamed mice
Description: FIG. 18A-18E. Splenocytes and PBLs from mice untreated (naïve), inflamed, or inflamed and treated with 5-FU or CPT-11 were fixed, permeabilized, and double stained for the expression of CD247 (ζ-chain) (FIGS. 18A, 18B) and CD3ε-chain (FIGS. 18D, 18E), as shown by mean fluorescence intensity (MFI), measured in gated CD3^+ cells. FIG. 18C: Splenocytes from mice, naïve, inflamed and inflamed treated with 5-FU or CPT-11, were labeled with CFSE and activated with anti-CD3 and anti-CD28 antibodies or left non-activated. The proliferative response was assessed by monitoring cell divisions of gated CFSE-labeled Thy1.2+ (CD90+) T-cells. The percent of proliferating cells was calculated and compared to steady state levels of non-activated cells per each group. Data from three independent experiments is presented (n=3). Statistical analyses using t test indicated significant differences at 95%. Means and SEM are shown. *, P<0.05; **, P<0.01. FIG. 18F-18I. For the detection of myeloid differentiation state, splenocytes from each group were stained for (18F) DC11b^+CD11c^+ cells (representing DCs), (18G) DC11b^+F4/80^+ cells (representing monocytes), (18H) CD11c^+MHCII^+CD80^+ cells (representing fully differentiated […] as antigen presenting cells) and (18I) F4/80^+MHCII^+CD80^+ cells (representing fully differentiated […] as antigen presenting cells). Data from three independent experiments (n=4) is presented. Statistical analyses using t test indicated significant differences at 95%. Means and SEM are shown. *, P<0.05; **, P<0.01; ***, P<0.001. Abbreviations: Nor. (normal), Rel. (relative), Inf. (inflamed), ce. Pro. (cell proliferation)
Isolated splenocytes and peripheral blood leukocytes (PBLs) were treated with erythrocyte lysis buffer and washed in PBS. Cells were pre-coated with anti-CD16/CD32 (Biolegend) for FcR blockage. For surface staining, cells were incubated for 30 min at 4° C. with FITC-labeled anti-Gr1, anti-CD11c, and anti-CD4; PE-labeled anti F4/80, anti-CD3ε, anti-CD45R/B220, and anti-mNKp46; and biotinylated anti-CD11b and anti-CD8 that were detected with streptavidin-Cy5 (Biolegend and eBioscience). Intracellular staining of CD247 cells was performed by subjecting the cells to fixation with paraformaldehyde (1%) for 20 min at 4° C., followed by washing and permeabilization for 10 min with saponin detergent (0.1%) at room temperature (RT). Cells were then washed and incubated with FITC-labeled monoclonal anti-CD247 (H146) (Abcam), or biotinylated monoclonal anti-CD247 (H146), which were subsequently detected with streptavidin-Cy5. FoxP3 staining was performed according to the manufacturer's instructions. Samples were analyzed using FACSCalibur with Cell Quest software (BD).

[2] = Spleen weight and size, BCG chronic inflammation mouse model; type: in vivo; conditions: BCG-inflamed WT-mice, 2 days after third BCG injection
Experimental: FIG. 15B. Spleen weight (left) and size (right) in etanercept-treated and untreated mice (n=7) was evaluated 2 days following the third BCG injection. *P<0.003, **P<0.002 (t-test). Data are from two independent experiments (mean and s.d.).
Induced chronic inflammation in mice was established by sustained subcutaneous injections of the heat-killed Bacille Calmette Guerin strain of Mycobacterium tuberculosis, (231141; Difco Laboratories) (BCG, 50 μg per animal/dose) once a week, for three weeks. The first two BCG administrations were mixed 1:1 with Incomplete Freund's adjuvant (IFA) (Sigma), and the second boost delivery was given with PBS. Mice sacrifice and cell isolations were performed two days after the third injection. Spleen weight was measured and cells from the spleen and peripheral blood (PBLs) were analyzed. The results represent three independent experiments.

| Compound | MDSC levels in peripheral blood (PBLs) (MDSCs (Gr1+CD11b+)) | MDSC levels in the spleen (MDSCs (Gr1+CD11b+)) | CD247 expression in T cells, spleen (CD247 (ζ chain)) | increase in the expression value of CD247 upon treatment (CD247 (ζ chain)) | levels of Treg cells (CD4+Foxp3+) in spleen (CD4+Foxp3+ Treg cells) | CD3ε expression levels (CD3ε chain) | NO production by MDSCs (MDSCs) | ROS production by MDSCs (MDSCs) | CD247 expression in T cells, PBLs (CD247 (ζ chain)) | CD247 expression in host and adoptively transferred donor NK cells (CD247) | CD247 expression in host and adoptively transferred donor T cells (CD247) | differentiated myeloid cells in spleen (CD11b+CD11c+ DCs, CD11b+F4/80+ macrophages) [1] | spleen size and weight [2] |
| --- | --- | --- | --- | --- | --- | --- | --- | --- | --- | --- | --- | --- | --- |
| CS(=O)(=O)OCCCCOS(C)(=O)=O [Busulfan, 1,4-butanediol dimethanesulfonate] | significant decline; also recorded: decrease; also recorded: reduced | significant decline; also recorded: decrease; also recorded: reduced | initial recovery | about 23% | remained unchanged | remained uniform among the different groups | – | – | – | – | – | – | – |
| O=P1(N(CCCl)CCCl)NCCCO1 (stereo not shown) [Cyclophosphamide] | significantly increased; also recorded: significant accumulation | remained high; also recorded: significantly increased | down-regulation of CD247 that was observed in the course of chronic inflammation was maintained | – | decrease | remained normal | maintained high | maintained high | – | – | – | – | – |
| COc1cccc2c1C(=O)c1c(O)c3c(c(O)c1C2=O)C[C@@](O)(C(=O)CO)C[C@@H]3O[C@H]1C[C@H](N)[C@H](O)[C@H](C)O1 [Doxorubicin] | significant decline; also recorded: decrease; also recorded: reduced | significant decline; also recorded: decrease; also recorded: reduced | clear increase | about 24% | not affected; also recorded: no change | uniform among the different groups | – | – | clear increase | – | – | – | – |
| etanercept | – | decreased percentage of MDSCs | – | – | – | – | – | – | – | significantly increased | significantly increased | significant increase | reduced spleen size and weight |
